Measurements from patent US20070265245A1, “S-Mirtazapine For The Treatment Of Hot Flush” (N.V. Organon, priority 2004, published 2007).

Experiments:
Type in all cases: in vivo
[1] = system: ovariectomized rats; assay: Locomotor activity of ovariectomized rats, telemetry; conditions: for locomotor activity (decrease to): from the first treatment onwards, vehicle around 1.2 cpm
Description: (§1) The effect of the maleate salt of S-mirtazapine was measured in an animal model for hot flushes. The model is based on the observation that the drop in tail skin temperature at the transition from the rest to the active phase in rats is attenuated after ovariectomy. The locomotor activity of the rats was also measured.
(§2) Tail skin temperature of the rats was measured by use of the telemetry system from Data Sciences International (DSI), a division of Transoma Medical, Inc., USA. This system comprises implantable wireless transmitters (TA10TA-F40 W/TP), receivers (RPC-1 and RLA1020), a data exchange matrix (DEM), and a data acquisition and analysis system (DQ ART 2.2 silver version).
(§3) The S-mirtazapine maleate was dissolved in 0.9% saline with 5% mulgofen. Compound and vehicle were administered intraperitoneally. Sham placebo and ovariectomized(OVX)/placebo groups received 2 ml/kg/day saline and compound treated groups received 10, 30 or 100 mg/kg/day in a volume of 2 ml/kg/day. Here, the indicated amounts refer to the weight of the maleate salt of S-mirtazepine.
(§4) Female rats from the Crl:WU strain, weighing 225-250 g at arrival, were supplied by CPB Harlan, The Netherlands. Rats were housed individually in Macrolon™ cages (38×22×15 cm) with a sawdust bedding and “Enviro Dry™” as cage enrichment. The day after arrival the rats were ovariectomized or sham operated and the transmitter was implanted intraperitoneally under isoflurane aneasthesia. After surgery the rats were placed in a temperature controlled room (21.5±1° C.) with an adapted light/dark cycle (lights off 9:30 h a.m., lights on 7:30 h p.m.). They were allowed to recover from surgery and to adapt to the light/dark cycle for at least 2 weeks. Food and water were given ad libitum.
(§5) Treatment groups were randomized over the OVX groups. The rats were injected intraperitoneally with vehicle or S-mirtazapine maleate once a day at 11:00 a.m. for a period of 5 days. The tail skin temperature and the locomotor activity of the rats were measured every 5 minutes continuously, but the measurements between 12:00 and 02:00 pm (in which period the maximal effect of S-mirtazapine was observed) were used for calculations of the treatment effects. During this period the rats remained completely undisturbed. Before 9:30 am (the time the light turned off) the rats could be taken care of.
(§6) Body weights of the rats were determined before and after the treatment period. Data were expressed as mean ±S.E.M. unless otherwise specified. For testing statistical significance the Analysis of Variance (ANOVA) was used. The data were logarithmically transformed to normalize variations. A value of P<0.05 was considered to be significant.
Data were collected for each rat for 7 seconds every 5 minutes during two hours starting one hour after drug administration (11:00 a.m.). The mean tail skin temperature over this 2-h period was calculated for each rat. In addition, the group means were calculated together with the standard error of the mean (SEM). The tail skin temperature is expressed in degrees centigrade (°C.) and locomotor activity in counts per minutes (cpm).
The number of animals in the different test groups varied between 5-8.

[2] = Body weight of treated rats before and after treatment period; conditions: experiment 1, 10 mg/kg i.p., 5 days
Description: as §6

[3] = system: ovariectomized rats; assay: Tail skin temperature in ovariectomized rats (animal model for hot flushes), telemetry; conditions: for restoration of the attenuation of the OVX-induced drop in tail skin temperature: summary; for TST lower than the sham operated group: from day 2 onwards
Description: as §1, §2, §3, §4
The left and right flank and the rear end of the back above the tail implant of the rat were shaved. The rats were anaesthetized with isoflurane (FORENE®/1-chloro-2,2,2,-trifluorethyl-difluoromethyl-ether, Abbott). The operation area was disinfected with Hibicet® (1.5% m/v chloorhexidinedigluconaat and 1.5% m/v cetrimide). The rats were bilateral ovariectomized (OVX) or sham operated. The incision made in the right flank was also used to implant the transmitter in the peritoneal cavity. When closing the abdomen the transmitter was fixed to the abdominal muscles with stitches.
On the back of the rat in height of the hips, a small incision in the skin was made and the thermistor-tipped probe was led to the back of the rat. From here the probe was brought under the skin in the tail to about 2 cm from the base of the tail. The lead was fixed with a stitch at the musculus biceps femoris. To complete the operation the skin was closed with wound clips. Immediately after surgery the rats were treated with the analgesic buprenorphine 50 μg/kg sc (Temgesic®, Schering-Plough).
as §5, §6
Data were collected for each rat for 7 seconds every 5 minutes during two hours starting one hour after drug administration (11:00 a.m.). The mean tail skin temperature over this 2-h period was calculated for each rat. […]

Compound: CN1CCN2c3ncccc3Cc3ccccc3[C@H]2C1.O=C(O)/C=C\C(=O)O [S-mirtazapine maleate]
- locomotor activity ([1]; 30 mg/kg, summary, effect not statistically significant): reduced
- locomotor activity compared to OVX placebo group ([1]; experiment 1, 10 mg/kg i.p.): no significant effect
- locomotor activity compared to sham operated placebo group ([1]; experiment 1, 10 mg/kg/day i.p., day 3): significant reduction
- effect on locomotor activity ([1]; experiment 2, 10 mg/kg/day, rest of experiment at level of placebo treated OVX rats): only an effect on locomotor activity after the first treatment
- locomotor activity at the end of the treatment period ([1]; experiment 2, 30 mg/kg i.p.): about 0.5 cpm
- drop in locomotor activity ([1]; experiment 2, 30 mg/kg i.p., after 5 days treatment): 50%
- locomotor activity (decrease to) ([1]; experiment 2, 30 mg/kg i.p.): about 0.5 cpm
- locomotor activity at the end of the treatment period ([1]; experiment 2, 100 mg/kg i.p.): increased to the level of the vehicle treated rats
- locomotor activity (decrease to) ([1]; experiment 2, 100 mg/kg i.p.): about 0.5 cpm
- locomotor activity after 5 days treatment compared to the OVX placebo group ([1]; experiment 2, any dose group (10, 30, 100 mg/kg)): No statistically significant effect
- effect on body weight (BW) [2]: no significant effect
- restoration of the attenuation of the OVX-induced drop in tail skin temperature ([3]; 10 mg/kg i.p., OVX rats): not
- restoration of the attenuation of the OVX-induced drop in tail skin temperature ([3]; 30 mg/kg i.p., OVX rats): restored
- effect against hot flush (conclusion) ([3]; 30 mg/kg in rats): effect against hot flush
- effect against hot flush (conclusion) ([3]; 100 mg/kg in rats): effect against hot flush
- increase in TST after the first treatment day ([3]; experiment 1, 10 mg/kg/day i.p., OVX rats): approximately 2 °C
- effect on tail skin temperature on day 5 ([3]; experiment 1, 10 mg/kg/day i.p., day 5): no effect
- TST after the end of treatment ([3]; experiment 1, 10 mg/kg/day i.p., all groups returned to normal values for OVX rats): about 29 °C
- TST during the treatment period ([3]; experiment 1, 10 mg/kg/day i.p., compared to sham/placebo and compared to OVX/placebo at day 4): significantly higher level
- tail skin temperature compared to the OVX rats after 5 consecutive days ([3]; experiment 2, 10 mg/kg): no effect
- increase in TST after the first treatment ([3]; experiment 2, 10 mg/kg/day i.p.): 1-3 °C
- TST during the treatment period compared to the OVX rats ([3]; experiment 2, 10 mg/kg/day i.p., day 2 and 3): significantly higher level
- TST after end of treatment ([3]; experiment 2, 10 mg/kg/day i.p., returned to normal TST values of OVX rats): 28-29 °C
- TST after the end of treatment ([3]; experiment 2, 30 mg/kg i.p.): returned to normal values of OVX rats
- TST compared to the sham operated group after 5 consecutive days ([3]; experiment 2, 30 mg/kg i.p.): statistically significantly below
- restoration of the fall in TST ([3]; experiment 2, 30 mg/kg i.p.): significantly restored
- tail skin temperature compared to the OVX group after 5 consecutive days ([3]; experiment 2, 30 mg/kg i.p.): significant decrease
- TST versus sham operated placebo group on day 5 ([3]; experiment 2, 30 mg/kg i.p., day 5): statistically significantly different
- TST lower than the sham operated group ([3]; experiment 2, 30 mg/kg i.p.): 2-4 °C
- TST after the end of treatment ([3]; experiment 2, 100 mg/kg i.p.): stayed up to 2 days after the end of treatment at a lower level
- restoration of the fall in TST ([3]; experiment 2, 100 mg/kg i.p.): significantly restored
- tail skin temperature compared to the OVX group after 5 consecutive days ([3]; experiment 2, 100 mg/kg i.p.): significant decrease
- TST lower than the sham operated group ([3]; experiment 2, 100 mg/kg i.p.): 2-4 °C
